{"source": "patent US20220411846A1", "about": "“METHOD FOR PREDICTING THE VIRULENCE AND PATHOGENICITY OF GRAM-NEGATIVE BACTERIAL STRAINS” (priority 2019, published 2022)", "test_system": "strains of E. cloacae complex", "assay": "E. cloacae complex polymyxin B survival assay", "assay_type": "cell-based, Enterobacter cloacae complex", "conditions": "5 strains expressing 2-hydroxymyristate vs 5 strains not expressing it; 1, 3 and 10 μg/ml; 4 hours", "protocol": "Strains of the Enterobacter complex were selected.\nThe Enterobacter strains preserved in a tube frozen with 30% glycerol are transplanted in a planktonic culture in 20 ml of an LB culture medium. After incubation at 37° C. overnight, 1 ml of the culture diluted to 10^7 is brought into contact with increasing concentrations of polymyxin B (1 μg/ml, 3 μg/ml and 10 μg/ml). A tube without antibiotic is added as a control.\nAll the tubes are incubated at 37° C. with shaking for an additional 4 hours. The cultures are then diluted and spread on LB agar Petri dishes.\nThe dishes are incubated at 37° C. overnight and the colonies are counted.\nPercentage survival is computed as follows:\n(CFU polymyxin B/CFU control)×100\n5 strains of E. cloacae complex expressing 2-hydroxymyristate (2HM) and 5 strains of E. cloacae complex not expressing 2-hydroxymyristate (2HM) were exposed to different concentrations of polymyxin B for 4 hours."}
{"substance": "polymyxin B [polymixin B]", "values": [{"measurement": "Survival of strains after exposure to polymyxin B (FIG. 6)", "result": "presence of 2-OH myristate on Lipid A generates resistance"}]}
